In the kinase profiling compilation of Christmann-Franck et al. (2016):

Experiments:
Experiment in all cases: radiometric filter-binding kinase assay, Kinase HotSpot
Details in all cases: compound 0.5 µM; ATP 10 µM
[1] = biological target: GSK3A (human) (UniProt P49840)
[2] = biological target: CAMK2G (human) (UniProt Q13555)
[3] = biological target: AXL (human) (UniProt P30530)
[4] = biological target: TBK1 (human) (UniProt Q9UHD2)
[5] = biological target: PAK3 (human) (UniProt O75914)
[6] = biological target: FRK (human) (UniProt P42685)
[7] = biological target: TAOK1 (human) (UniProt Q7L7X3)
[8] = biological target: EPHB4 (human) (UniProt P54760)
[9] = biological target: FLT3 (human) (UniProt P36888)
[10] = biological target: DAPK2 (human) (UniProt Q9UIK4)
[11] = biological target: IGF1R (human) (UniProt P08069)
Chain of IGF1R (human) (P08069 whole entry, looked up): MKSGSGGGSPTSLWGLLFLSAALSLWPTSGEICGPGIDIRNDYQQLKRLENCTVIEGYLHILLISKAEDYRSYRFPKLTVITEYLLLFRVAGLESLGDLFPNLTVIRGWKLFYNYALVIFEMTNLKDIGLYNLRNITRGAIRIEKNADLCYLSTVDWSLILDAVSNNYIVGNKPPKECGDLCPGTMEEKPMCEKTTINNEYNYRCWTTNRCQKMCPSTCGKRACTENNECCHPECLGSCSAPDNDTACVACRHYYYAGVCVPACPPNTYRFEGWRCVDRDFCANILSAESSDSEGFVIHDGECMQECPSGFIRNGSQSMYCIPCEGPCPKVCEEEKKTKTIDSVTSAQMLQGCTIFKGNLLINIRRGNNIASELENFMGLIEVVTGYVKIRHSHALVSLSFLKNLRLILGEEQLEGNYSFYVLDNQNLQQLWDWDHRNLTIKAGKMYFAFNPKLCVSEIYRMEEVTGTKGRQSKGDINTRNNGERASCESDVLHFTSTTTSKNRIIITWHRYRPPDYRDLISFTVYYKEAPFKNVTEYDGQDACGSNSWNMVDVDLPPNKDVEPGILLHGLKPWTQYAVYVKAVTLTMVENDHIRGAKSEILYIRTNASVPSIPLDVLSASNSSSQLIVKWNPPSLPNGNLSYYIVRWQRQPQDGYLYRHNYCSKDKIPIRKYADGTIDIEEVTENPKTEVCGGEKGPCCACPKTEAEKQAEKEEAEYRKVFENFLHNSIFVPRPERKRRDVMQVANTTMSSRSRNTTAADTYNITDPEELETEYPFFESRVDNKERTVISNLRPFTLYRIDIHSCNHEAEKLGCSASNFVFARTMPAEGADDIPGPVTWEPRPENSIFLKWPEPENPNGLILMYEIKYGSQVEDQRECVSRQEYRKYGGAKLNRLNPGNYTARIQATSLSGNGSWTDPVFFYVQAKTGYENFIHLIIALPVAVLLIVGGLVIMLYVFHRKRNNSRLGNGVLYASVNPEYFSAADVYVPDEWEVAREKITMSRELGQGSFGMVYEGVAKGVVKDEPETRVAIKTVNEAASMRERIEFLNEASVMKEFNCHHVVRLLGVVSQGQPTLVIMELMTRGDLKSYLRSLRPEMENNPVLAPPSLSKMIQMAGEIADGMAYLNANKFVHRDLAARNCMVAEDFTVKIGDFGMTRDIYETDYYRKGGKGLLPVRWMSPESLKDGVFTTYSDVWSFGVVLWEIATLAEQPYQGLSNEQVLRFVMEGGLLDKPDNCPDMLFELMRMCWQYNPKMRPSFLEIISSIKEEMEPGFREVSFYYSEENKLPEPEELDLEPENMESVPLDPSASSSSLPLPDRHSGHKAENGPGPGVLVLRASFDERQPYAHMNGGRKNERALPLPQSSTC

[12] = biological target: CHEK1 (human) (UniProt O14757)
[13] = biological target: SRMS (human) (UniProt Q9H3Y6)
[14] = biological target: MAP3K2 (human) (UniProt Q9Y2U5)
[15] = biological target: MAP3K5 (human) (UniProt Q99683)
[16] = biological target: SIK2 (human) (UniProt Q9H0K1)
[17] = biological target: IKBKB (human) (UniProt O14920)
[18] = biological target: MAP4K2 (human) (UniProt Q12851)
Chain of MAP4K2 (human) (Q12851 whole entry, looked up): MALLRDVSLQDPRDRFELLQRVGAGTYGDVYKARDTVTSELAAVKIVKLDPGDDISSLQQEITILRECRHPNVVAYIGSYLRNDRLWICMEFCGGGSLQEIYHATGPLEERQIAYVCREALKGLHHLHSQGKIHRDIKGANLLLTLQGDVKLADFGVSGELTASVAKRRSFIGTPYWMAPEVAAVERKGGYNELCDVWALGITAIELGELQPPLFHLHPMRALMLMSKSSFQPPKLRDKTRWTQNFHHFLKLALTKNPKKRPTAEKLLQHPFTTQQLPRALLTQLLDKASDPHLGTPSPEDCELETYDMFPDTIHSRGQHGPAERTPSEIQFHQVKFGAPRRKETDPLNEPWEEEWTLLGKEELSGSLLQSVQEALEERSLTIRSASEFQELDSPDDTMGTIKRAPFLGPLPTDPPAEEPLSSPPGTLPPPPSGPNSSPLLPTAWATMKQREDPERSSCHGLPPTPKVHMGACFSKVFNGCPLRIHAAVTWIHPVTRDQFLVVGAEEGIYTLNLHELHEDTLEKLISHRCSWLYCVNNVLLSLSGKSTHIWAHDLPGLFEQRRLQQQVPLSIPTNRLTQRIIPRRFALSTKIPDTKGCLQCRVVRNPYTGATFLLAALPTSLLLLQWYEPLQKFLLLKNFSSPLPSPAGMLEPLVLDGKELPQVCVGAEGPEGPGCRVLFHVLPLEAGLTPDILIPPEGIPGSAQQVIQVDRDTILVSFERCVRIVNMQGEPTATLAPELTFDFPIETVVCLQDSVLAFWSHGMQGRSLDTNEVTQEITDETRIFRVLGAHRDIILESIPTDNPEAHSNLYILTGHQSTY

[19] = biological target: TGFBR2 (human) (UniProt P37173)
[20] = biological target: CHEK2 (human) (UniProt O96017)
[21] = biological target: RIPK2 (human) (UniProt O43353)
[22] = biological target: VRK1 (human) (UniProt Q99986)
[23] = biological target: AURKB (human) (UniProt Q96GD4)
[24] = biological target: TSSK1B (human) (UniProt Q9BXA7)
[25] = biological target: NEK11 (human) (UniProt Q8NG66)
[26] = biological target: NTRK2 (human) (UniProt Q16620)
[27] = biological target: MAP3K7 TAB1 (human) (UniProt O43318+Q15750)
[28] = biological target: SLK (human) (UniProt Q9H2G2)
[29] = biological target: MELK (human) (UniProt Q14680)
[30] = biological target: PRKCZ (human) (UniProt Q05513)
[31] = biological target: NUAK1 (human) (UniProt O60285)
[32] = biological target: CSNK1G2 (human) (UniProt P78368)
[33] = biological target: SGK2 (human) (UniProt Q9HBY8)
[34] = biological target: PNCK (human) (UniProt Q6P2M8)
[35] = biological target: SYK (human) (UniProt P43405)
[36] = biological target: MAPK10 (human) (UniProt P53779)
[37] = biological target: HIPK3 (human) (UniProt Q9H422)
[38] = biological target: CLK3 (human) (UniProt P49761)
[39] = biological target: STK16 (human) (UniProt O75716)
Chain of STK16 (human) (O75716 whole entry, looked up): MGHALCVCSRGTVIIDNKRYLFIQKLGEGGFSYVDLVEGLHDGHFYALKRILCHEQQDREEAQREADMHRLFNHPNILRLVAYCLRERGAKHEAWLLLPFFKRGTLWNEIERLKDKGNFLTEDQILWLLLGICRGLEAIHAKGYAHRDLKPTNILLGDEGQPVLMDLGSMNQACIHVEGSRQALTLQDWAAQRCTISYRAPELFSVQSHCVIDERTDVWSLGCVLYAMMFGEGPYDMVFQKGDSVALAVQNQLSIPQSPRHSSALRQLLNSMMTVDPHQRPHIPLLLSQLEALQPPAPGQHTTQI

[40] = biological target: MAPKAPK3 (human) (UniProt Q16644)
[41] = biological target: JAK1 JH1 catalytic (human) (UniProt P23458)
Chain of JAK1 JH1 catalytic (human) (P23458 whole entry, looked up): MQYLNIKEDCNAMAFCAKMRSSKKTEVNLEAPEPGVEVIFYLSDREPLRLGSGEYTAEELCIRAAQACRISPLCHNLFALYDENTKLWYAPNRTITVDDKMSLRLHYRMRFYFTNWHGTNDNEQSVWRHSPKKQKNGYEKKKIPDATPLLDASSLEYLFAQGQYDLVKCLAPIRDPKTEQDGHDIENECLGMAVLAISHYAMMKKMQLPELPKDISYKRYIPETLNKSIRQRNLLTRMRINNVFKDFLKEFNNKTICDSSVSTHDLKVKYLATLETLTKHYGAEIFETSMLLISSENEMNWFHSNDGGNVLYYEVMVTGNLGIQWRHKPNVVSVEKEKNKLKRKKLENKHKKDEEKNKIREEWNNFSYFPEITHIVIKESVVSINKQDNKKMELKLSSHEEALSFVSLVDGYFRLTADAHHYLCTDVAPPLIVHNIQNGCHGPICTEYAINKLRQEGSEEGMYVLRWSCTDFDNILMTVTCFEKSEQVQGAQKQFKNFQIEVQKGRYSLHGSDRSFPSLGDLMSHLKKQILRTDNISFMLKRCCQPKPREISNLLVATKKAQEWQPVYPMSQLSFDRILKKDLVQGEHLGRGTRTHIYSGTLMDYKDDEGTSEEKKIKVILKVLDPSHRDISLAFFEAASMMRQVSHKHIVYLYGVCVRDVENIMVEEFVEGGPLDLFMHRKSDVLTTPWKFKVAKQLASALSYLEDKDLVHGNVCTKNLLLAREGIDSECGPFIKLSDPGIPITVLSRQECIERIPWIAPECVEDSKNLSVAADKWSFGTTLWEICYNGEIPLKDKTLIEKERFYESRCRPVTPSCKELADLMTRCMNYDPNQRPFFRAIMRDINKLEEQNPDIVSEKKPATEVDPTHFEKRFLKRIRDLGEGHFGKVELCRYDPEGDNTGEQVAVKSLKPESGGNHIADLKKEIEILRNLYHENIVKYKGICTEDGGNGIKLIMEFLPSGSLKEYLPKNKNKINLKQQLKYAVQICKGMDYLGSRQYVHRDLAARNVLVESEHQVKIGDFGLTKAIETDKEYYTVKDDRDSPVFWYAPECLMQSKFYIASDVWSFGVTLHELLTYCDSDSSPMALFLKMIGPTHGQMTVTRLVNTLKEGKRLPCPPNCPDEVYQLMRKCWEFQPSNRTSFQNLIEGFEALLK

[42] = biological target: CAMK1G (human) (UniProt Q96NX5)
Chain of CAMK1G (human) (Q96NX5 whole entry, looked up): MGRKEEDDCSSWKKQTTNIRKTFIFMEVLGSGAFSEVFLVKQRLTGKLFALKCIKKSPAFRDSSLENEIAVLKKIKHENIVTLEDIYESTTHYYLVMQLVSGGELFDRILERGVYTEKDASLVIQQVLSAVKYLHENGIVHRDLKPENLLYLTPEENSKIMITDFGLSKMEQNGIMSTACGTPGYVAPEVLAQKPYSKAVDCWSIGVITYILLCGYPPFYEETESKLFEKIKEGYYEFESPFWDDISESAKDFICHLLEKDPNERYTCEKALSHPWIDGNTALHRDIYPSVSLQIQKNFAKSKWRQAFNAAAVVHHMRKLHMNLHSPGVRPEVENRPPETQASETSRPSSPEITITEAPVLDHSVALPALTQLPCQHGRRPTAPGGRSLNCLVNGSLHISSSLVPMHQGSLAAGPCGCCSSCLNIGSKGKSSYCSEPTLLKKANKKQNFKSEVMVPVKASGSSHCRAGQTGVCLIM

Chain of TBK1 (human) (Q9UHD2 whole entry, looked up): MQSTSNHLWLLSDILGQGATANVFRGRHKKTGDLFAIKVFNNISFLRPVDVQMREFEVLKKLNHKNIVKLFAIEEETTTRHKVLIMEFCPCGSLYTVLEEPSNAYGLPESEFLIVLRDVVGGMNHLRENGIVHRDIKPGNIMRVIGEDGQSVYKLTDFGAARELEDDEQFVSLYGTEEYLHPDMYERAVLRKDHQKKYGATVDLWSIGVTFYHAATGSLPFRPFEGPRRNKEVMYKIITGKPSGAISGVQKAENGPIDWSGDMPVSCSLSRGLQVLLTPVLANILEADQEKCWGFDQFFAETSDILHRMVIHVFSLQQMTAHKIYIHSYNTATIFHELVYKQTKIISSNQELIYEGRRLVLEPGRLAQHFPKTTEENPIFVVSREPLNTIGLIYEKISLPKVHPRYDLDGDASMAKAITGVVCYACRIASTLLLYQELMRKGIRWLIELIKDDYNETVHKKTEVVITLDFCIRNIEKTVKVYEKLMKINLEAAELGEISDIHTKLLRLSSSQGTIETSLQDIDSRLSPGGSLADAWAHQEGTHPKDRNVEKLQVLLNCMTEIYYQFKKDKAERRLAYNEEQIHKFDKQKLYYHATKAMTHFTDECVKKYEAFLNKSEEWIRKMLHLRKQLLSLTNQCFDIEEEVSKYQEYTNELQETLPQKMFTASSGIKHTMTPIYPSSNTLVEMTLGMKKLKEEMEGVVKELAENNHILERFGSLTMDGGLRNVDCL

O=C1NC(=O)C(c2c[nH]c3ccccc23)=C1c1c[nH]c2ccccc12
residual activity [1]: 27.7%
residual activity [2]: 104%
residual activity [3]: 103%
residual activity [4]: 84%
residual activity [5]: 97.4%
residual activity [6]: 88.2%
residual activity [7]: 93.7%
residual activity [8]: 88.5%
residual activity [9]: 16.1%
residual activity [10]: 88.6%
residual activity [11]: 80%
residual activity [12]: 93.1%
residual activity [13]: 82.4%
residual activity [14]: 107%
residual activity [15]: 106%
residual activity [16]: 102%
residual activity [17]: 106%
residual activity [18]: 84.9%
residual activity [19]: 95.5%
residual activity [20]: 124%
residual activity [21]: 97%
residual activity [22]: 109%
residual activity [23]: 89.3%
residual activity [24]: 106%
residual activity [25]: 108%
residual activity [26]: 90.7%
residual activity [27]: 97%
residual activity [28]: 45.4%
residual activity [29]: 82%
residual activity [30]: 96.2%
residual activity [31]: 78.5%
residual activity [32]: 92%
residual activity [33]: 90.5%
residual activity [34]: 93.3%
residual activity [35]: 103%
residual activity [36]: 110%
residual activity [37]: 96%
residual activity [38]: 102%
residual activity [39]: 94.2%
residual activity [40]: 90.5%
residual activity [41]: 101%
residual activity [42]: 99.5%

O=C(CCCc1ccc(-c2ccccc2F)cc1)Nc1ccc(O)cc1
residual activity [1]: 98.6%
residual activity [2]: 109%
residual activity [3]: 91.4%
residual activity [4]: 98.2%
residual activity [5]: 104%
residual activity [6]: 91.9%
residual activity [7]: 91.4%
residual activity [8]: 106%
residual activity [9]: 104%
residual activity [10]: 106%
residual activity [11]: 106%
residual activity [12]: 98.8%
residual activity [13]: 101%
residual activity [14]: 89.1%
residual activity [15]: 94.3%
residual activity [16]: 102%
residual activity [17]: 101%
residual activity [18]: 104%
residual activity [19]: 101%
residual activity [20]: 101%
residual activity [21]: 84.5%
residual activity [22]: 95.5%
residual activity [23]: 106%
residual activity [24]: 107%
residual activity [25]: 100%
residual activity [26]: 95.8%
residual activity [27]: 105%
residual activity [28]: 102%
residual activity [29]: 95.5%
residual activity [30]: 116%
residual activity [31]: 96.4%
residual activity [32]: 99.4%
residual activity [33]: 101%
residual activity [34]: 102%
residual activity [35]: 101%
residual activity [36]: 100%
residual activity [37]: 99.4%
residual activity [38]: 124%
residual activity [39]: 111%
residual activity [40]: 91%
residual activity [41]: 98.2%
residual activity [42]: 96.8%

Cn1nc2c3c(cccc31)C(=O)c1ccccc1-2
residual activity [1]: 91.1%
residual activity [2]: 109%
residual activity [3]: 104%
residual activity [4]: 88.8%
residual activity [5]: 101%
residual activity [6]: 94.3%
residual activity [7]: 100%
residual activity [8]: 99.9%
residual activity [9]: 59.3%
residual activity [10]: 104%
residual activity [11]: 95.9%
residual activity [12]: 93.7%
residual activity [13]: 104%
residual activity [14]: 103%
residual activity [15]: 93.1%
residual activity [16]: 100%
residual activity [17]: 103%
residual activity [18]: 75.4%
residual activity [19]: 94.9%
residual activity [20]: 89.8%
residual activity [21]: 75.7%
residual activity [22]: 84.1%
residual activity [23]: 83.5%
residual activity [24]: 98.4%
residual activity [25]: 105%
residual activity [26]: 84%
residual activity [27]: 83.9%
residual activity [28]: 103%
residual activity [29]: 83.6%
residual activity [30]: 97.9%
residual activity [31]: 46.2%
residual activity [32]: 91.5%
residual activity [33]: 98.9%
residual activity [34]: 101%
residual activity [35]: 94.8%
residual activity [36]: 97.3%
residual activity [37]: 113%
residual activity [38]: 98.5%
residual activity [39]: 83.3%
residual activity [40]: 104%
residual activity [41]: 110%
residual activity [42]: 95.5%
